The values that follow come from BindingDB's records for PubMed 1828505 (University of Pennsylvania, 1991).

As a reminder, the Ki is the dissociation constant of the complex between target and ligand, obtained from inhibition or displacement. High values mean weaker binding, low ones tighter binding.

In the test the target is D(2) dopamine receptor (Homo sapiens, UniProt P14416).

Several values for one entry are separate records, joined by “and”; a condition that tells them apart may be missing. Equal entries are not always repeated.

Sequence of D(2) dopamine receptor (P14416 whole entry): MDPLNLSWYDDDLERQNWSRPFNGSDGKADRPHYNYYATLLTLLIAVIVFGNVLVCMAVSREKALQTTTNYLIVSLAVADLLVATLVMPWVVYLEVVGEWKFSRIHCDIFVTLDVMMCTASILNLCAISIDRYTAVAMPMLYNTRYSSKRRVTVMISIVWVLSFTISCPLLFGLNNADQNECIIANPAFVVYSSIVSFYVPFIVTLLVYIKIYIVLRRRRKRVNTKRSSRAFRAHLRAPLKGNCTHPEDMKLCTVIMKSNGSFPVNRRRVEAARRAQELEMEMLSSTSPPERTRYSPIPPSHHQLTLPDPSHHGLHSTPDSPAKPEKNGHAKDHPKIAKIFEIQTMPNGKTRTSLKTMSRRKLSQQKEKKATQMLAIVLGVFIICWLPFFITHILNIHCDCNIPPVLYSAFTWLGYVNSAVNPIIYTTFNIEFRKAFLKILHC

Take `OCCN1CCN(CC/C=C2/c3ccccc3Sc3ccc(C(F)(F)F)cc32)CC1` [(cis) 2-{4-[3-(2-Trifluoromethyl-thioxanthen-9-ylidene)-propyl]-piperazin-1-yl}-ethanol(Flupentixol)]: the Ki is 0.6 nM and 2.3 nM and 0.66 nM and 0.73 nM and 2.5 nM.
